Target: T1, mGluR2 receptor (metabotropic glutamate receptor 2) (Homo sapiens, UniProt Q14416)
T1 construct: expressed in transfected cells
Assay: mGluR2 Potentiator Screen, FLIPR, EC10-EC20 glutamate challenge
Type: cell-based
Conditions: not given
Description: Procedure for mGluR2 Potentiator Screen NLB methods EC10-EC20 Challenge Cell Culture and Plating:
Cells used for this screen are HEK cells stably transfected with the mGluR2 receptor (metabotropic glutamate receptor 2) and the Gα15 G protein. Clones were identified by functional activity (FLIPR). Cells are grown in growth media containing: DMEM High Glucose with Glutamine and Na Pyruvate (GIBCO), 10% (v/v) Heat inactivate FBS (GIBCO), G418 500 ug/ml (from 50 mg/ml stock) (GIBCO) and Blasticidin 3 ug/ml (from 5 mg/ml stock made in H2O) (Invitrogen).
2 days before the assay cell are trypsinized with 0.25% trysin/EDTA (GIBCO), spun down at 1000 rpm for 5 minutes, resuspended in growth media and plated on polystyrene 384 well black wall 1 clear bottom poly-D-lysine coated plates at a density of approximately 18,000 cells/well in a volume of 50 μL per well. One day before the assay the growth media is removed from the plates by flicking, and replaced with media containing DMEM High Glucose without Glutamine and Na Pyruvate (GIBCO) and 10% (v/v) dialyzed FBS (GIBCO). The reason for the removal of glutamine the day before the assay is to minimize the amount of glutamate that will be present during the assay, as endogenous glutarnate released from the cells can reduce the fluorescent response and interfere with the FLIPR screen.
FLIPR Methods and Data Analysis:
On the day of the assay, the FLIPR assay is performed using the following methods.
The pH is adjusted to 7.4 with 1 M NaOH. Prepare a 2 mM (approx.) stock solution of Fluo-4,am (Molecular Probes) dye in DMSO-22 μl DMSO per 50 ug vial (440 μL per 1 mg vial). Make a 1 mM (approx.) flou-4, PA working solution per vial by adding 22 μl of 20% pluronic acid (PA), (Molecular Probes) in DMSO to each 50 ug vial (440 μL per 1 mg vial). Prepare a 250 mM Probenecid (Sigma) stock solution by dissolving 0.71 g into 5 ml 1N NaOH and 5 ml assay buffer (for each liter of assay wash buffer)L Make 4 uM (approx.) dye incubation media by adding […] per 11 ml DMEM high glucose without glutamine (220 ml per 1 mg vial). Add 110 μL probenecid stock per 11 ml (2.5 mM final [concentration]). To the dye media add 3 units/ml of glutamic-pyruvic transaminase (GPT, Sigma) and 3 mM Na Pyruvate. The assay has worked with dye concentrations from 2 uM to 8 uM dye as well. To the assay buffer from drug preparation, add 1.83 mls DMSO and 400 μL 15.8% P104 (from New Leads biology) per liter for final concentrations of 0.18% DMSO and 0.006% P104. To the assay buffer for cell washing, add probenecid in the same manner and concentration that was used for the dye media.
Remove growth media from cell plates by flicking. Add 50 μl/well dye solution. Incubate 1 hour at 37° C. and 5% CO2. Remove dye solution and wash 3 times with assay buffer+probenecid (100 μl probenecid stock per 10 ml buffer), leaving 30 μL/well assay buffer. Wait at least 10-15 minutes. Compounds and agonist challenge additions are performed with the FLIPR. The 1st addition is for test compounds, which are added as 15 μL of 4×[concentration] of potentiator. The second 2nd addition is 15 μL of 4×[concentration] of agonist or challenge. This achieves 1× concentration of all compounds only after 2nd addition. The 1st and 2nd additions are performed separately using the FLIPR, which give 2 different data files. Compounds are pretreated at least 30 minutes before agonist addition,
Results are analyzed by dividing the peak fluorescent value of the FLIPR response by the […] to achieve a ratio response. The ratios are then analyzed by curve fitting programs. […] Maximum values for dose response curves (forced fitting) are derived from standards on the plate.
Compound Preparation and Glutamate Challenge:
Compounds are delivered as 10 mM DMSO stocks or as powders, Powders are solubilized in DMSO at 10 mM (as solubility allows). Compounds are sonicated in a heated water bath (35-40° C.) for at least 20 minutes.

T1 sequence (Q14416 19-872, species assumed): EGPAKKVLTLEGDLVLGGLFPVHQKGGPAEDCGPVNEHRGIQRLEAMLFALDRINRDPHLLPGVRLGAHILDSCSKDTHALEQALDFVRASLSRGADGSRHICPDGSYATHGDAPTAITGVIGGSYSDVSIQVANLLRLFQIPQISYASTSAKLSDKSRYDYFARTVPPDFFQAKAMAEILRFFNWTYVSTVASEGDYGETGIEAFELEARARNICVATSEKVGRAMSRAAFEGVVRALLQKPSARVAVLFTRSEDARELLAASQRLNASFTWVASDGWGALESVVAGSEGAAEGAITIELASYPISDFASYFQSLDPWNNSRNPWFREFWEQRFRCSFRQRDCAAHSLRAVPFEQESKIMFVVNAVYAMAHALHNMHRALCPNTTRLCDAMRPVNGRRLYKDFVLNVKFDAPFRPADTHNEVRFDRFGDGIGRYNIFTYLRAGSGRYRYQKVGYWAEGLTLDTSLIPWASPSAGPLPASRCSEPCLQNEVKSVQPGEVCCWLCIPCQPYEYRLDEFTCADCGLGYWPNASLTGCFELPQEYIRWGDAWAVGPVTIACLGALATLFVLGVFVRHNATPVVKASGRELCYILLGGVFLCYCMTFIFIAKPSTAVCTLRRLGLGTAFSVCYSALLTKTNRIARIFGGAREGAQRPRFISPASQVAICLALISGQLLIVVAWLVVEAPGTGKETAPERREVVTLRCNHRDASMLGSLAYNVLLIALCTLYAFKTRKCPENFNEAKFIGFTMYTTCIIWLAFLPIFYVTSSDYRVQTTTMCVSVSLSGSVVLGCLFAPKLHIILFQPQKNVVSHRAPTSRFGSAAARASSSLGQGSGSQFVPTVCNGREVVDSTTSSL

Q: For `C[C@@H]1CN(Cc2nc3cnccc3n2C)CC[C@@H]1c1ccc(OC(F)(F)F)cc1Cl` (relative stereo) [compound 188], which EC50 is on record?
A: Its EC50 is 194 nM.

Q: `C[C@@H]1CN(Cc2nc3ncccc3n2C)CC[C@@H]1c1ccc2c(c1)CCCC2` (relative stereo) [compound 189] was tested. Which EC50 did it give?
A: Its EC50 is 621 nM.

Q: With `C[C@@H]1CN(Cc2nc3cnccc3n2C)CC[C@@H]1c1ccc2c(c1)CCCC2` (relative stereo) [compound 190] as the compound, how does the EC50 read?
A: Its EC50 is 573 nM.

Q: With `CC(C)Oc1cc(F)ccc1[C@H]1CCN(Cc2nc3ncccc3n2C)C[C@H]1C` (relative stereo) [compound 191] as the compound, how does the EC50 read?
A: The EC50 was 610 nM.

Q: `CC(C)Oc1cc(F)ccc1[C@H]1CCN(Cc2nc3cnccc3n2C)C[C@H]1C` (relative stereo) [compound 192] was tested. Which EC50 did it give?
A: The EC50 was 1170 nM.

Q: How did the EC50 turn out when `CC(C)Oc1ccc([C@H]2CCN(Cc3nc4cnccc4n3C)C[C@H]2C)cc1Cl` (relative stereo) [compound 193] was run?
A: The EC50 was 590 nM.

Q: Which EC50 does the source give for `CCOc1ccc([C@H]2CCN(Cc3nc4cnccc4n3C)C[C@H]2C)cc1F` (relative stereo) [compound 194] here?
A: The EC50 was > 5360 nM.

Q: Which EC50 does the source give for `CC(C)Oc1ccc([C@H]2CCN(Cc3nc4ncccc4n3C)C[C@H]2C)cc1Cl` (relative stereo) [compound 195] here?
A: The EC50 was 506 nM.

Q: With `C[C@@H]1CN(Cc2nc3ncccc3n2C)CC[C@@H]1c1ccc(F)c(C(F)(F)F)c1` (relative stereo) [compound 197] as the compound, how does the EC50 read?
A: The EC50 was 128 nM.

Q: With `C[C@@H]1CN(Cc2nc3cnccc3n2C)CC[C@@H]1c1ccc(F)c(C(F)(F)F)c1` (relative stereo) [compound 198] as the compound, how does the EC50 read?
A: Its EC50 is 176 nM.

Q: For `C[C@@H]1CN(Cc2nc3cnccc3n2C)CC[C@@H]1c1ccc(OC(F)F)cc1F` (relative stereo) [compound 199], which EC50 is on record?
A: The EC50 was 122 nM.

Q: How did the EC50 turn out when `C[C@@H]1CN(Cc2nc3ncccc3n2C)CC[C@@H]1c1ccc2c(c1)CCO2` (relative stereo) [compound 200] was run?
A: The EC50 was 469 nM.

Q: Which EC50 does the source give for `C[C@@H]1CN(Cc2nc3cnccc3n2C)CC[C@@H]1c1ccc2c(c1)CCO2` (relative stereo) [compound 201] here?
A: Its EC50 is > 1070 nM.

Q: With `C[C@@H]1CN(Cc2nc3cnccc3n2C)CC[C@@H]1c1ccc(OC(F)F)cc1Cl` (relative stereo) [compound 202] as the compound, how does the EC50 read?
A: Its EC50 is 125 nM.

Q: With `C[C@@H]1CN(Cc2nc3ncccc3n2C)CC[C@@H]1c1ccc(OC(F)F)cc1Cl` (relative stereo) [compound 203] as the compound, how does the EC50 read?
A: The EC50 was 43.6 nM.

Q: With `C[C@@H]1CN(Cc2nc3ncccc3n2C)CC[C@@H]1c1ccc(F)cc1C(F)(F)F` (relative stereo) [compound 204] as the compound, how does the EC50 read?
A: The EC50 was 28.3 nM.

Q: How did the EC50 turn out when `Cc1cc(F)ccc1[C@H]1CCN(Cc2nc3cnccc3n2C)C[C@H]1C` (relative stereo) [compound 205] was run?
A: Its EC50 is 243 nM.

Q: `Cc1cc(F)ccc1[C@H]1CCN(Cc2nc3ncccc3n2C)C[C@H]1C` (relative stereo) [compound 206] was tested. Which EC50 did it give?
A: Its EC50 is 88.6 nM.

Q: For `C[C@@H]1CN(Cc2nc3ncccc3n2C)CC[C@@H]1c1ccc(Cl)cc1C(F)(F)F` (relative stereo) [compound 207], which EC50 is on record?
A: Its EC50 is 108 nM.

Q: `C[C@@H]1CN(Cc2nc3cnccc3n2C)CC[C@@H]1c1ccc(Cl)cc1C(F)(F)F` (relative stereo) [compound 208] was tested. Which EC50 did it give?
A: Its EC50 is 110 nM.

Q: Which EC50 does the source give for `Cc1ccc([C@H]2CCN(Cc3nc4cnccc4n3C)C[C@H]2C)c(Cl)c1` (relative stereo) [compound 209] here?
A: Its EC50 is 159 nM.

Q: For `Cc1ccc([C@H]2CCN(Cc3nc4ncccc4n3C)C[C@H]2C)c(Cl)c1` (relative stereo) [compound 210], which EC50 is on record?
A: Its EC50 is 62.6 nM.

Q: How did the EC50 turn out when `C[C@@H]1CN(Cc2nc3cnccc3n2C)CC[C@@H]1c1ccc(OC(F)(F)F)c(Cl)c1` (relative stereo) [compound 212] was run?
A: The EC50 was 209 nM.

Q: How did the EC50 turn out when `C[C@@H]1CN(Cc2nc3ncccc3n2C)CC[C@@H]1c1ccc(OC(F)(F)F)c(Cl)c1` (relative stereo) [compound 213] was run?
A: The EC50 was 253 nM.

Q: How did the EC50 turn out when `COc1cc(OC(F)(F)F)ccc1[C@H]1CCN(Cc2nc3cnccc3n2C)C[C@H]1C` (relative stereo) [compound 214] was run?
A: The EC50 was 124 nM.

Q: `COc1cc(OC(F)(F)F)ccc1[C@H]1CCN(Cc2nc3ncccc3n2C)C[C@H]1C` (relative stereo) [compound 215] was tested. Which EC50 did it give?
A: The EC50 was 59.4 nM.

Q: With `CC(C)Oc1ccc([C@H]2CCN(Cc3nc4cnccc4n3C)C[C@H]2C)c(C(F)(F)F)c1` (relative stereo) [compound 216] as the compound, how does the EC50 read?
A: The EC50 was 287 nM.

Q: For `CO[C@@H]1CN(Cc2nc3cnccc3n2C)CC[C@@H]1c1ccc(C(F)(F)F)cc1` (relative stereo) [compound 227], which EC50 is on record?
A: The EC50 was 606 nM.

Q: `C[C@@H]1CN(Cc2nc3cnccc3n2C)CC[C@@H]1c1ccccc1F` (single isomer, unassigned) [compound 73] was tested. Which EC50 did it give?
A: The EC50 was 242 nM.

Q: With `C[C@@H]1CN(Cc2nc3cnccc3n2C)CC[C@@H]1c1ccccc1F` (single isomer, unassigned) [compound 117] as the compound, how does the EC50 read?
A: Its EC50 is > 359 nM.

Q: With `C[C@@H]1CN(Cc2nc3ncccc3n2C)CC[C@@H]1c1ccc(C(F)(F)F)cc1` (single isomer, unassigned) [compound 118] as the compound, how does the EC50 read?
A: The EC50 was 33.4 nM.

Q: Which EC50 does the source give for `C[C@@H]1CN(Cc2nc3ncccc3n2C)CC[C@@H]1c1ccc(C(F)(F)F)cc1` (single isomer, unassigned) [compound 119] here?
A: Its EC50 is > 1990 nM.

Q: Which EC50 does the source give for `C[C@@H]1CN(Cc2nc3ncccc3n2C)CC[C@@H]1c1ccc(Cl)cc1F` (single isomer, unassigned) [compound 122] here?
A: The EC50 was 28.8 nM.

Q: Which EC50 does the source give for `COc1cc(C(F)(F)F)ccc1[C@H]1CCN(Cc2nc3ncccc3n2C)C[C@H]1C` (single isomer, unassigned) [compound 130] here?
A: Its EC50 is 787 nM.

Q: Which EC50 does the source give for `COc1cc(C(F)(F)F)ccc1[C@H]1CCN(Cc2nc3ncccc3n2C)C[C@H]1C` (single isomer, unassigned) [compound 131] here?
A: Its EC50 is 21.9 nM.

Q: `C[C@@H]1CN(Cc2nc3ncccc3n2C)CC[C@@H]1c1ccc(C(F)(F)F)cc1F` (single isomer, unassigned) [compound 138] was tested. Which EC50 did it give?
A: The EC50 was < 9.25 nM.

Q: Which EC50 does the source give for `C[C@@H]1CN(Cc2nc3ncccc3n2C)CC[C@@H]1c1ccc(C(F)(F)F)cc1F` (single isomer, unassigned) [compound 139] here?
A: Its EC50 is 993 nM.

Q: How did the EC50 turn out when `C[C@@H]1CN(Cc2nc3cnccc3n2C)CC[C@@H]1c1ccc(Cl)cc1F` (single isomer, unassigned) [compound 140] was run?
A: The EC50 was 2050 nM.

Same assay, conditions: mGluR2 potentiator screen, FLIPR, EC10-EC20 glutamate challenge

Q: Which EC50 does the source give for `C[C@@H]1CN(Cc2nc3ncccc3n2C)CC[C@@H]1c1ccc(C(F)(F)F)c(Cl)c1` (relative stereo) [compound 234] here?
A: Its EC50 is 101 nM.

Q: How did the EC50 turn out when `C[C@@H]1CN(Cc2nc3cnccc3n2C)CC[C@@H]1c1ccc(C(F)(F)F)c(Cl)c1` (relative stereo) [compound 235] was run?
A: The EC50 was 135 nM.

Q: For `Cc1cc(C(F)(F)F)ccc1[C@H]1CCN(Cc2nc3ncccc3n2C)C[C@H]1C` (relative stereo) [compound 239], which EC50 is on record?
A: Its EC50 is 88 nM.

Q: With `C[C@@H]1CN(Cc2nc3ncccc3n2C)CC[C@@H]1c1ccc(F)c(F)c1F` (relative stereo) [compound 249] as the compound, how does the EC50 read?
A: The EC50 was 113 nM.

Q: For `C[C@@H]1CN(Cc2nc3cnccc3n2C)CC[C@@H]1c1ccc(F)c(F)c1F` (relative stereo) [compound 250], which EC50 is on record?
A: Its EC50 is > 221 nM.

Q: `C[C@@H]1CN(Cc2nc3ncccc3n2C)CC[C@@H]1c1ccc(OC(F)F)cc1F` (relative stereo) [compound 257] was tested. Which EC50 did it give?
A: The EC50 was 67.7 nM.

Q: `C[C@@H]1CN(Cc2nc3cnccc3n2C)CC[C@@H]1c1ccc(F)cc1C(F)(F)F` (relative stereo) [compound 258] was tested. Which EC50 did it give?
A: Its EC50 is 125 nM.

Q: How did the EC50 turn out when `C[C@@H]1CN(Cc2nc3ncccc3n2C)CC[C@@H]1c1ccc(F)cc1OC(F)F` (relative stereo) [compound 274] was run?
A: The EC50 was 75.5 nM.

Q: Which EC50 does the source give for `C[C@@H]1CN(Cc2nc3cnccc3n2C)CC[C@@H]1c1ccc(F)cc1OC(F)F` (relative stereo) [compound 275] here?
A: Its EC50 is 96.5 nM.

Reference: patent publication US20080312271A1, “AZABENZIMIDAZOLYL COMPOUNDS” (Pfizer Inc., priority 2006, published 2008)
